Experimental data from US5451506A, “Oncostatin M and novel compositions having anti-neoplastic activity” (Oncogen Limited Partnership, priority 1993, dated 1995).

Tests used:
Format in all cases: cell-based, human
A375 melanoma cells [1] = assay: Cell growth modulatory assay using 3H-thymidine incorporation into DNA (GIA); design: Observed % Inhibition of 3H-TdR Incorporation: concentration or dose not given beside the values
Experimental: (§1) The assays were performed in 96 flat well plates (Costar 3596). Human melanoma cells (A375) (3×10^3 /100 μl) or cells from another cell line of interest were at an appropriate cell density used. Cells in 100 μl growth medium were placed in each well. Three hours later, 100 μl of test sample in growth medium was added to each well. Plates were incubated at 37° C. for 3 days. Then 25 μl (0.5 μCi) of a solution of ^3 H-thymidine (specific activity 27 μCi/μg) was added to each well for the final 6 hours of incubation. The cells were then transferred to glass filter strips using a multiwell harvester (PHD Cell Harvester, Cambridge Technology, Inc.). The filters were transferred to scintillation vials. Two ml of scintillation fluid (ScientiVerse II, Fisher Scientific Co.) was added and the samples counted in a scintillation counter to quantitate ^3 H-thymidine incorporation.

WI26 fibroblasts = assay: as above
Experimental: as §1
(§2) Human tumor cells (A375 melanoma cells, A549 lung cancer cells, HBT10 neuroblastoma cells, and SK-MEL28 melanoma cells) were seeded at 3×10^3 cells/well and normal fibroblasts (WI26 cells and WI38 cells) at 1.5×10^3 cells/well in 96-well plates. Various concentrations of purified Oncostatin M, obtained from the fraction from the C18^3 column with peak antiproliferative activity against A375 cells were used. The assay was performed as described in Example 1B above.

SK-MEL28 melanoma cells = assay: as above
Experimental: as §1, §2

WI38 fibroblasts = assay: as above
Experimental: as §1, §2

A375 melanoma cells [2] = assay: Soft agar colony inhibition assay (TGI); conditions: 11 days; for # Colonies: untreated 106
Experimental: A 0.5 ml base layer of 0.5% agar (Agar Noble; Difco Laboratories, Detroit, Mich.) in growth medium was added to 24-well Costar tissue culture plates. One-half ml 0.3% agar in growth medium containing 1 to 2.5×10^3 A375 cells or other cell line of interest at an appropriate cell density, and various concentrations of the factor to be tested were overlaid on the base layer of agar. The plates were incubated at 37° C. in a humidified atmosphere of 5% CO2 in air and refed after 7 days by addition of 0.5 ml of 0.3% agar in growth medium containing the same concentration of the factor to be tested as used previously. Colonies were enumerated unfixed and unstained. The number of colonies with greater than 6 cells were scored.
A375 cells were plated in soft agar, with or without the indicated GIA units of Oncostatin M (see Table 3), as described above in Example 1C. The factor used was from a C18^3 propanol column fraction with peak tumor growth inhibitory activity (GIA). The number of colonies was enumerated at 11 days.

Oncostatin M: Human polypeptide growth regulator produced by activated leukocytes; apparent molecular weight approximately 28 kD by PAGE
GIA Units to Cause 30% Inhibition 3H-TDR Incorporation (A375 melanoma cells [1]; A375 (melanoma)): 0.3 GIA Units
concentration to cause 30% inhibition 3H-TdR (A375 melanoma cells [1]; A375, based upon the specific activity of purified Oncostatin M): ~0.015 ng/mL
Observed % Inhibition of 3H-TdR Incorporation (A375 melanoma cells [1]; A375 Cells): 17%
% Inhibition of 3H-thymidine incorporated (A375 melanoma cells [1]; Exp. 1, A375, 1 GIA units/well): 46%
% Inhibition of 3H-thymidine incorporated (A375 melanoma cells [1]; Exp. 1, A375, 4 GIA units/well): 62%
% Inhibition of 3H-thymidine incorporated (A375 melanoma cells [1]; Exp. 1, A375, 16 GIA units/well): 83%
% Inhibition of 3H-thymidine incorporated (A375 melanoma cells [1]; Exp. 2, A375, 3 GIA units/well): 76%
% Inhibition of 3H-thymidine incorporated (A375 melanoma cells [1]; Exp. 2, A375, 9 GIA units/well): 87%
% Inhibition of 3H-thymidine incorporated (A375 melanoma cells [1]; Exp. 3, A375, 8 GIA units/well): 71%
% Inhibition of 3H-thymidine incorporated (A375 melanoma cells [1]; Exp. 3, A375, 25 GIA units/well): 85%
% Inhibition of 3H-thymidine incorporated (A375 melanoma cells [1]; Exp. 3, A375, 75 GIA units/well): 89%
% Inhibition of 3H-thymidine incorporated (A375 melanoma cells [1]; Exp. 4, A375, 1 GIA units/well): 59%
% Inhibition of 3H-thymidine incorporated (A375 melanoma cells [1]; Exp. 4, A375, 5 GIA units/well): 75%
% Inhibition of 3H-thymidine incorporated (A375 melanoma cells [1]; Exp. 4, A375, 20 GIA units/well): 87%
Growth inhibitory activity contained in the fraction (A375 melanoma cells [1]; apparently homogeneous C18^3 fraction, approximately 300 ng protein): about 40,000 GIA units
Proliferation of A375 cells (A375 melanoma cells [1]; protein electroeluted from the 28 kD band, non-reducing PAGE): inhibit proliferation of A375 cells
% Stimulation of 3H-thymidine incorporated (WI26 fibroblasts; Exp. 2, WI26, 3 GIA units/well): 52%
% Stimulation of 3H-thymidine incorporated (WI26 fibroblasts; Exp. 2, WI26, 9 GIA units/well): 36%
% Stimulation of 3H-thymidine incorporated (WI26 fibroblasts; Exp. 2, WI26, 27 GIA units/well): 46%
Cytotoxic activity (WI26 fibroblasts; WI26 human fibroblasts): lacks cytotoxic activity
% Inhibition of 3H-thymidine incorporated (SK-MEL28 melanoma cells; Exp. 4, SK-MEL28, 1 GIA units/well): 11%
% Inhibition of 3H-thymidine incorporated (SK-MEL28 melanoma cells; Exp. 4, SK-MEL28, 5 GIA units/well): 25%
% Inhibition of 3H-thymidine incorporated (SK-MEL28 melanoma cells; Exp. 4, SK-MEL28, 20 GIA units/well): 44%
% Stimulation of 3H-thymidine incorporated (WI38 fibroblasts; Exp. 1, WI38, 1 GIA units/well): 46%
% Stimulation of 3H-thymidine incorporated (WI38 fibroblasts; Exp. 1, WI38, 4 GIA units/well): 30%
% Stimulation of 3H-thymidine incorporated (WI38 fibroblasts; Exp. 1, WI38, 16 GIA units/well): 25%
Cytotoxic activity (WI38 fibroblasts; WI38 human fibroblasts): lacks cytotoxic activity
% Inhibition of Colony Formation (A375 melanoma cells [2]; 27 GIA Units/Well): 89%
# Colonies (A375 melanoma cells [2]; 27 GIA Units/Well): 11
% Inhibition of Colony Formation (A375 melanoma cells [2]; 45 GIA Units/Well): 69%
# Colonies (A375 melanoma cells [2]; 45 GIA Units/Well): 32
% Inhibition of Colony Formation (A375 melanoma cells [2]; 83 GIA Units/Well): 94%
# Colonies (A375 melanoma cells [2]; 83 GIA Units/Well): 6
% Inhibition of Colony Formation (A375 melanoma cells [2]; 250 GIA Units/Well): 96%
# Colonies (A375 melanoma cells [2]; 250 GIA Units/Well): 4
